Patent US11691965B2, “Method for preparing pyrrolidinyl urea derivative” (ZHANGZHOU PIEN TZE HUANG PHARMACEUTICAL CO., LTD., priority 2020, dated 2023)
pIC50: −log10 of the molar value.

Tests used:
[1] = tested on: human cytochrome P450 isoenzymes; test: Cytochrome P450 isoenzyme inhibitory activity test, overall conclusion; format: in vitro ADME; conditions: human liver microsomes
Procedure: (§1) Experimental Example 2: Cytochrome P450 Isoenzyme Inhibitory Activity Test The inhibitory activities of test compound against different isoforms of human cytochrome P450 isoenzymes were determined. The test compound, standard inhibitor (100×final concentration) and mixed substrate working solution were prepared; the microsome frozen in −80° C. refrigerator was taken out and thawed. […]

[2] = molecular target: CYP2D6 (Homo sapiens (Human), UniProt P10635); test: Cytochrome P450 isoenzyme inhibitory activity test (human liver microsomes); format: in vitro ADME; conditions: heading: Cytochrome P450 isoenzyme IC50 CYP2D6, 37° C., 10 minutes
CYP2D6, sequence (P10635 whole entry, canonical isoform): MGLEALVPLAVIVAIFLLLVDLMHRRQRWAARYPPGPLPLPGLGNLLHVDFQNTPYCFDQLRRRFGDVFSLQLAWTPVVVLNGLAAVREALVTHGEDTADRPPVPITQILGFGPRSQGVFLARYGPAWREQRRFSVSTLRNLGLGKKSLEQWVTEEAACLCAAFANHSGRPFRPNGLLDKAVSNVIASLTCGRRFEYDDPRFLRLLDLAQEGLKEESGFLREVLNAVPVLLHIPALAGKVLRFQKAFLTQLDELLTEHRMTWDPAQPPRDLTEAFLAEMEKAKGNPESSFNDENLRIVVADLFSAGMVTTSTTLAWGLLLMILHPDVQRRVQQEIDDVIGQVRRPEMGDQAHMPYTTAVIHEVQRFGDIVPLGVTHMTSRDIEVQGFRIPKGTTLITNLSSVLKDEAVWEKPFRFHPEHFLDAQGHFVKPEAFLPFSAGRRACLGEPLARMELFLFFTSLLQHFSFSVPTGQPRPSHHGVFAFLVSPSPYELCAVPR
Procedure: (§2) Experimental Example 2: Cytochrome P450 Isoenzyme Inhibitory Activity Test The inhibitory activities of test compound against different isoforms of human cytochrome P450 isoenzymes were determined. The test compound, standard inhibitor (100×final concentration) and mixed substrate working solution were prepared; the microsome frozen in −80° C. refrigerator was taken out and thawed. 2 μL of the compound to be tested and standard inhibitor solution were added to the corresponding wells, and at the same time, 2 μL of the corresponding solvent was added to the non-inhibitor control wells (NIC) and the blank control wells; secondly, 20 μL of mixed substrate solution was added to the corresponding wells except the blank wells (20 μL of Pb was added to the blank wells); human liver microsome solution was prepared (the solution was put back in the refrigerator immediately after using and marking the date), and then 158 μL of human liver microsome solution was added to all wells; the sample plate was put in a 37° C. water bath for pre-incubation, and then a coenzyme factor (NADPH) solution was prepared; after 10 minutes, 20 μL of NADPH solution was added to all wells, the sample plate was shaken well, and incubated in a 37° C. water bath for 10 minutes; at the corresponding time point, 400 μL of cold acetonitrile solution (internal standard is 200 ng/mL tolbutamide and labetalol) was added to terminate the reaction; after the plates were evenly mixed, the mixture was centrifuged at 4000 rpm for 20 minutes to precipitate protein; 200 μL of supernatant was added into 100 μL of water, shaken well and detected by LC/MS/MS.

[3] = molecular target: CYP2C9 (Homo sapiens (Human), UniProt P11712); test: as above; format: in vitro ADME; conditions: heading: Cytochrome P450 isoenzyme IC50 CYP2C9, 37° C., 10 minutes
CYP2C9, sequence (P11712 whole entry): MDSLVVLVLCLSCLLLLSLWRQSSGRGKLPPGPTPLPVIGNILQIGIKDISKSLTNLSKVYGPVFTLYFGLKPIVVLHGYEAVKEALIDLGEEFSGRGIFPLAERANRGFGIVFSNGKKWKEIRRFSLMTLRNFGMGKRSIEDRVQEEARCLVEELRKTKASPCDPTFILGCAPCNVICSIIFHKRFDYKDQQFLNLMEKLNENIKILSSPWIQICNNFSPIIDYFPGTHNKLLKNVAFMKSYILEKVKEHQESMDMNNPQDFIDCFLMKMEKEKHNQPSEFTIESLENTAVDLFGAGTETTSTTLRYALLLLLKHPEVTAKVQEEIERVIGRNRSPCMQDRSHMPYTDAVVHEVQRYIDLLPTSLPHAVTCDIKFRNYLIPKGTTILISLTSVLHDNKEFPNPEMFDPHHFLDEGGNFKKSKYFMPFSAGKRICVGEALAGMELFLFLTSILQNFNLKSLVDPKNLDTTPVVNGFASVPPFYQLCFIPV
Procedure: as §2

[4] = molecular target: CYP2C19 (Homo sapiens (Human), UniProt P33261); test: as above; format: in vitro ADME; conditions: heading: Cytochrome P450 isoenzyme IC50 CYP2C19, 37° C., 10 minutes
CYP2C19, sequence (P33261 whole entry): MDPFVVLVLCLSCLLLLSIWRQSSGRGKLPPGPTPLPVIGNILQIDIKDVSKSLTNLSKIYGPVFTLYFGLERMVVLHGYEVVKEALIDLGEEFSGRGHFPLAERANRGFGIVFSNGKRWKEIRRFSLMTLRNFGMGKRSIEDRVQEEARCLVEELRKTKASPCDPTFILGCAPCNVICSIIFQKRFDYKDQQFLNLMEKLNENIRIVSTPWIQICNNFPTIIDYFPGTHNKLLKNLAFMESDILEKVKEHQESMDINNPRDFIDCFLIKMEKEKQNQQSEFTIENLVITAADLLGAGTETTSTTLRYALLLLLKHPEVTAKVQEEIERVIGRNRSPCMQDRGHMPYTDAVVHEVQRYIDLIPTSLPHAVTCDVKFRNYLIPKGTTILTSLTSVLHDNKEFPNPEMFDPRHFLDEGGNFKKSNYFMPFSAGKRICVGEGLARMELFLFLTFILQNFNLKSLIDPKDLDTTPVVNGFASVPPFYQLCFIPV
Procedure: as §2

[5] = molecular target: CYP3A4 (Homo sapiens (Human), UniProt P08684); test: as above; format: in vitro ADME; conditions: heading: Cytochrome P450 isoenzyme IC50 CYP3A4, 37° C., 10 minutes
CYP3A4, sequence (P08684 whole entry): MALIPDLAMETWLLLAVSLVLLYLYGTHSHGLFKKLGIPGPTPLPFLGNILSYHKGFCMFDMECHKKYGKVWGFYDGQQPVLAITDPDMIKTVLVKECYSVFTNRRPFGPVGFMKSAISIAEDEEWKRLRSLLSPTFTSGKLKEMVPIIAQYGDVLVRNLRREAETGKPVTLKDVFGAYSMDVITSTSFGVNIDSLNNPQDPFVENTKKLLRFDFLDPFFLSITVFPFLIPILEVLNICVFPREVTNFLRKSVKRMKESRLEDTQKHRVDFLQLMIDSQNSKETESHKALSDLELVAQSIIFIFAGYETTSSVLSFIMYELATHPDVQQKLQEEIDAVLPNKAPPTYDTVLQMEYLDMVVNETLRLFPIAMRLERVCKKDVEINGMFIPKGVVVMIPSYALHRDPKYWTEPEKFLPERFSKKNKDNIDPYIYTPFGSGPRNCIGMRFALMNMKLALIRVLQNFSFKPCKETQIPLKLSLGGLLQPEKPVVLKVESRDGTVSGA
Procedure: as §2

[6] = In vivo pharmacokinetics study after single administration in rats; set-up: species or system Sprague Dawley rats
Procedure: Experimental Example 3: In Vivo Pharmacokinetics Study after Single Administration in Rats
Male SD rats were used as the test animals, and the plasma concentrations of the compound were determined after a single administration and the pharmacokinetic behavior was evaluated.
Sprague Dawley rats (male, 200 to 300 g, 7 to 9 weeks old, Shanghai Charles River Laboratory Animal Co., LTD.)
Standard protocols were used to test the pharmacokinetic characteristics of the tested compounds in rodents after intravenous injection and oral administration, in the experiment, the tested compounds were prepared into a clear solution or a homogeneous suspension, and the rats were given a single intravenous injection and oral administration. In the intravenous injection group, the solvent was a certain proportion of ethanol and normal saline solution or a certain proportion of HP-β cyclodextrin solution of dimethyl sulfoxide (the pH was adjusted 3 to 4), the mixture was vortex-stirred to prepare 1 mg/mL clear solution and filtered by a microporous membrane for later use; oral solvent was a certain proportion of sodium carboxymethyl cellulose solution or a certain proportion of HP-β cyclodextrin solution of dimethyl sulfoxide (the pH was adjusted to above 4), after the compound to be tested was mixed with the solvent, the mixture was vortex-stirred to obtain a uniform suspension of 30 mg/mL for later use.
(§3) C0 is the initial concentration, T1/2 is the elimination half-life, Vdss is the steady-state apparent volume of distribution, Cl is the total clearance, and AUC0-inf is area under the plasma drug concentration-time curve from 0 time to extrapolation to infinity area, Cmax is the peak concentration, and Tmax is the peak time.

[7] = In vivo pharmacokinetics study after single administration in Beagle dogs
Procedure: Experimental Example 4: In Vivo Pharmacokinetics Study after Single Administration in Beagle Dogs
Male Beagle dogs were used as the test animals, and the plasma concentrations of the compounds were determined after a single administration and the pharmacokinetic behavior was evaluated.
Beagle (male, 6 to 12 kg, more than 6 months old, Beijing Mars Biotechnology Co., Ltd.)
The purpose of the experiment was to test the pharmacokinetic characteristics of the tested compounds in non-rodents after intravenous injection and oral administration, in the experiment, the tested compounds were prepared into a clear solution or a homogeneous suspension, and the beagle dogs were given a single intravenous injection or oral administration. In the intravenous injection group, the solvent was a certain proportion of HP-β-cyclodextrin solution of dimethyl sulfoxide or a certain proportion of ethanol, and a normal saline solution of polyethylene glycol 400, vortexed and ultrasonicated to prepare a […] clear solution and filtered by microporous membrane for later use; oral solvent was a certain proportion of HP-β cyclodextrin solution of dimethyl sulfoxide or a certain proportion of sodium carboxymethyl cellulose solution, after the compound to be tested was mixed with the solvent, the solvent was vortexed and ultrasonicated to prepare a 3 mg/mL uniform suspension for later use.
as §3

[8] = molecular target: TrkA (Homo sapiens (Human), UniProt P04629); test: TrkA enzyme activity test; format: biochemical
TrkA, sequence (P04629 440-796): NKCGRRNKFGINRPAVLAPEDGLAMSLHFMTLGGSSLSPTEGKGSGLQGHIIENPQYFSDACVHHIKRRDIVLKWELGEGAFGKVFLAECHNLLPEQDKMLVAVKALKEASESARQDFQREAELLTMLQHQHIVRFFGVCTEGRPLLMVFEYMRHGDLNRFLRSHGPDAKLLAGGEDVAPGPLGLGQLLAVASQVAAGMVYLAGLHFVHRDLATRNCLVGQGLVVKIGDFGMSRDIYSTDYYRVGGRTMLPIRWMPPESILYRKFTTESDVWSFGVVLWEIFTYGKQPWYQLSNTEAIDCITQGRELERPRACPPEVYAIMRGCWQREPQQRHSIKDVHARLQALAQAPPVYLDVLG
Procedure: Experimental Example 1: TrkA Enzyme Activity Test
TK detection kit Cisbio-62TK0PEJ
Detection plate PerkinElmer-6007299
Envision PerkinElmer-2104
20 mM Hepes (pH 7.5), 10 mM MgCl2 (magnesium chloride), 1 mM EGTA, 0.01% Brij35, 0.1 mM Orthovanadate (sodium vanadate), 0.02 g/mL BSA (bovine serum protein), 2 mM DTT (dithiothreitol), 1% DMSO
This experiment was performed using Cisbio's homogeneous time-resolved fluorescence conjugate energy transfer (HTRF® method) for activity detection. In the detection plate, enzyme, biotin-labeled peptide substrate, ATP and detection compound were mixed and incubated for reaction. […] The data were represented by fluorescence signal readings at 665 nm and 620 nm respectively, with a high ratio of 665 nm/620 nm indicating high activity and a low ratio of 665 nm/620 nm indicating inhibition of activity. […]
In a 10 μL reaction system with a buffer of 20 mM Hepes (pH 7.5), 10 mM MgCl2, 1 mM EGTA, 0.01% Brij35, 0.1 mM sodium vanadate, 0.02 g/mL BSA, 2 mM DTT, 1% DMSO medium, containing 15 nM TrkA kinase, 0.3 μM biotin-TK peptide (biotin-labeled tyrosine kinase substrate polypeptide), 100 μM ATP were incubated at 23° C. for 120 minutes. […]

[9] = molecular target: CYP1A2 (Homo sapiens (Human), UniProt P05177); format: in vitro ADME; conditions: microsomes, 10 min
CYP1A2, sequence (P05177 whole entry): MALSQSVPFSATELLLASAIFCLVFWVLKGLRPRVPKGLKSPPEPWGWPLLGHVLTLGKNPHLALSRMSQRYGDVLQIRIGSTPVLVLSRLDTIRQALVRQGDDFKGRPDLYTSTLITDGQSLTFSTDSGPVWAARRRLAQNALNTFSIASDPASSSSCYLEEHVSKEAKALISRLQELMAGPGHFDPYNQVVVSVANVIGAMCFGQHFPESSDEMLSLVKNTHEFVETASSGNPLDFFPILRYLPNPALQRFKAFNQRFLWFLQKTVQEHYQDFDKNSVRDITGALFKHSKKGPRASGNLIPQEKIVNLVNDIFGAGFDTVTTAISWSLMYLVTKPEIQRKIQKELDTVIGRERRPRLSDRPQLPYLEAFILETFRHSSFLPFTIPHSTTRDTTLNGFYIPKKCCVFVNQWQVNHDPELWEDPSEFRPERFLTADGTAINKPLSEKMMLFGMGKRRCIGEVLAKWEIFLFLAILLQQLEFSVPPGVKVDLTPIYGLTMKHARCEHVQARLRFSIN
Procedure: as §1

[10] = Sprague Dawley, rat, plasma, 2 mg/kg, male rats, 2 mpk intravenous injection
[11] = Sprague Dawley, rat, plasma, 300 mg/kg, male rats, 300 mpk oral
[12] = dog, plasma, 2 mg/kg, male Beagle dogs, 2 mpk intravenous injection
[13] = dog, plasma, 15 mg/kg, male Beagle dogs, 15 mpk oral

Structure (SMILES): COCCN1C[C@@H](n2ccc(F)c2)[C@H](NC(=O)Nc2c(C)c(-c3cnc(C4(F)COC4)nc3)nn2-c2ccccc2)C1 [Compounds of formula (1)]
- risk of drug-drug interaction (in words) [1]: lower risk of drug-drug interaction
- pIC50 [2]: 4.50
- pIC50 [3]: 4.36
- pIC50 [4]: < 4.30
- pIC50 [5]: < 4.30
- AUC(0-inf) [6, 10]: 1.97 µg·h/mL
- C0 [6, 10]: 3.62 µg/mL
- clearance [6, 10]: 1.03 L/h/kg
- half-life [6, 10]: 0.61 h
- Vd ([6]; Sprague Dawley, rat, plasma, 2 mg/kg, male rats, 2 mpk intravenous injection, read-out: Vdss): 0.7 L/kg
- AUC(0-inf) [6, 11]: 210 µg·h/mL
- Cmax [6, 11]: 47.6 µg/mL
- Tmax [6, 11]: 1.5 h
- bioavailability [6, 11]: 71.1%
- half-life [6, 11]: 1.7 h
- pharmacokinetic properties and oral bioavailability (in words) ([6]; rats): good pharmacokinetic properties and oral bioavailability
- pharmacokinetic properties and oral bioavailability (in words) ([7]; beagle dogs): good pharmacokinetic properties and oral bioavailability
- AUC(0-inf) [7, 12]: 1.84 µg·h/mL
- C0 [7, 12]: 3.94 µg/mL
- clearance [7, 12]: 1.1 L/h/kg
- half-life [7, 12]: 0.72 h
- Vd ([7]; dog, plasma, 2 mg/kg, male Beagle dogs, 2 mpk intravenous injection, read-out: Vdss): 0.71 L/kg
- AUC(0-inf) [7, 13]: 12.6 µg·h/mL
- Cmax [7, 13]: 4.56 µg/mL
- Tmax [7, 13]: 1 h
- bioavailability [7, 13]: 91.3%
- half-life [7, 13]: 1.2 h
- inhibitory effect on TrkA enzyme (in words) [8]: significant inhibitory effect
- pIC50 ([8]; 15 nM TrkA kinase, 100 μM ATP, 23° C., 120 minutes, read-out: Trk AIC50): 8.18
- pIC50 [9]: < 7.30
